Tests used:
[1] = test system: A375 human melanoma xenografts; experiment: A375 human melanoma xenograft study 1, tumor growth delay method; type: in vivo, athymic nude mice
Source text: The following study evaluates two intravenous formulations according to the present invention against human tumor xenografts in athymic nude mice. The study used the A375 human melanoma xenograft model to compare the in vivo antitumor efficacy of I.V. 9-nitro-camptothecin, in vehicles containing IDD-P which provides a particulate suspension of 9-nitro-camptothecin, and IDD-D which provides a droplet suspension of 9-nitro-camptothecin, to the efficacy of oral 9-nitro-camptothecin and intraperitoneal CAMPTOSAR®, HYCAMTIN®, and DTIC®. Examples 1 and 2 describe the compositions of IDD-P (FIG. 1; formulation 1-F) and IDD-D respectively.
In order to assess antitumor efficacy, groups of athymic nude mice (n=10) bearing ˜72-mg A375 melanomas were treated intravenously on the 5/2/5 schedule with 9-nitro-camptothecin in IDD-P at 3.0 mg/kg or 1.5 mg/kg and 9-nitro-camptothecin in IDD-D at 2.0 mg/kg or 1.0 mg/kg.
Female nude mice were 16 weeks of age (NCR-nuJBr; Taconic Farms) for the A375 study. The mice were fed ad libitum water (reverse osmosis, 1 ppm Cl) and autoclaved Prolab NIH-31 M/5% Rodent Diet consisting of 18% protein, 5% fat, 6% fiber, and 8% ash. Mice were housed in static microisolators on a 12-hour light cycle at 21-22° C. (70-72° F.) and 40%-60% humidity. The animal care and use program is AAALAC International accredited and specifically follows and complies with the recommendation of the National Research Council's Guide for the Care and Use of Laboratory Animals.
An A375 melanoma fragment (1 mm 3) was implanted subcutaneously in the flank of each nude mouse. When the tumors reached the 60-112 mg size range, the mice were sorted into treatment groups (on Day 1) such that the group mean tumor sizes ranged from 71.3 mg-72.5 mg. Estimated tumor weight was calculated using the formula: [formula]
IDD-P with a mean particle size of […] and IDD-D with a mean particle size of […] were prepared for the study by RTP Pharma Inc. For this, the 9-nitro-camptothecin suspensions were diluted with water and vehicle to provide doses of 3 mg/kg and 1.5 mg/kg in 33% IDD-P, and doses of 2 mg/kg and 1 mg/kg in 100% and 50% IDD-D, respectively. After dilution, 9-nitro-camptothecin suspensions were mixed thoroughly by gentle agitation and stored at 2-8° C. For its oral formulation, 9-nitro-camptothecin was dissolved in DMA (N,N-dimethylacetamide, SIGMA) and diluted with D5W to yield a final DMA concentration of 3%. CAMPTOSAR®, DTIC®, and HYCAMTIN® were obtained as the marketed drugs and solutions were prepared fresh on the day of dosing. […]
The tumor growth delay (TGD) method was used to assess efficacy. Tumor dimensions were measured twice weekly until the experiment was terminated on Day 62. […]

[2] = Evaluation of toxicity in the A375 melanoma study; type: in vivo, athymic nude mice; conditions: Group 7: 150 mg/kg I.P., qd×5
Experimental: Volumes of 0.20 ml per 20-g mouse, body-weight adjusted, were administered once daily. Tumor-bearing athymic nude mice were matched on Day 1 into 13 groups of ten animals and drug administration was initiated. The I.V. formulations of 9-nitro-camptothecin were given once daily on a 5/2/5 schedule as shown in the protocol summary shown in FIG. 4. Oral 9-nitro-camptothecin doses were given on a q3d×4 schedule (Days 1, 4, 8, and 11). Three reference drugs were administered I.P.: CAMPTOSAR® was given in three doses at weekly intervals (qwk×3); HYCAMTIN® was given in four doses at four-day intervals (q4d×4); and DTIC® was given in five consecutive daily doses (qd×5). The tumor growth control group for these reference treatments received no treatment (Group 1). The 9-nitro-camptothecin vehicle: 33.3% IDD-P, 100% IDD-D, and 3% DMA, was administered to vehicle control Groups 2-4, respectively.
The maximum tolerated dose (MTD), as defined by the NCI, is the highest dose at which no more than 10% of the animals die and the group mean body-weight loss is no more than 20%. Body weights were measured daily for four or five days and then twice weekly thereafter until the experiments were terminated on Day 62 of the study. […] Because mice are not tagged for MTD studies, only the mean group body weights recorded in the appended raw data are significant in those studies.

[3] = i.v., clinical trials; cited from earlier work
[4] = target: human serum albumin (HSA) (Homo sapiens, UniProt P02768); conditions: PBS at pH 7.4; cited from earlier work
human serum albumin (HSA), sequence (P02768 25-609): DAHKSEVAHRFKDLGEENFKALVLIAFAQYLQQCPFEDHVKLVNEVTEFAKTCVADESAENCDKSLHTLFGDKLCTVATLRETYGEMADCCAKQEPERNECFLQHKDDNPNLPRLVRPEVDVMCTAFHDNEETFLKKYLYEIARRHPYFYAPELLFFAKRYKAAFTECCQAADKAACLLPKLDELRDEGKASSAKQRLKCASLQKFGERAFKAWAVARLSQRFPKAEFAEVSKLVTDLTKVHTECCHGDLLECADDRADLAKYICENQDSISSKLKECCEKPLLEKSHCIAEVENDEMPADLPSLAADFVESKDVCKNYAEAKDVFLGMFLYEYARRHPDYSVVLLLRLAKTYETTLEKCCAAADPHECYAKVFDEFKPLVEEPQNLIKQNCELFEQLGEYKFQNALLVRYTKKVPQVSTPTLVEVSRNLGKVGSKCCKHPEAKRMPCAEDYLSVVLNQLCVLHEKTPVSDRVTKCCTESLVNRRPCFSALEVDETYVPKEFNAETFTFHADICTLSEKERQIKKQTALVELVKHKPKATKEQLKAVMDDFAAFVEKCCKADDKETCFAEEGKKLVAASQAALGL

Structure (SMILES): CCc1c2c(nc3ccc(OC(=O)N4CCC(N5CCCCC5)CC4)cc13)-c1cc3c(c(=O)n1C2)COC(=O)[C@]3(O)CC [CAMPTOSAR®, irinotecan]
- 62-day survivors (of 10 mice) ([1]; Group 5: 100 mg/kg I.P., qwk×3): one
- complete regression (CR) responses on Day 62 ([1]; Group 5: 100 mg/kg I.P., qwk×3, 100 mg/kg): single and one

Structure (SMILES): CN(C)/N=N/c1[nH]cnc1C(N)=O [DTIC®, dacarbazine]
- toxic deaths (of 10 mice) [2]: one and One

Structure (SMILES): CC[C@@]1(O)C(=O)OCc2c1cc1n(c2=O)Cc2cc3c(CN(C)C)c(O)ccc3nc2-1 [HYCAMTIN®, topotecan]
- 62-day survivors (of 10 mice) ([1]; Group 6: 10 mg/kg I.P., q4d×4): one
- complete regression (CR) responses on Day 62 ([1]; Group 6: 10 mg/kg I.P., q4d×4, 10 mg/kg): single and one

Structure (SMILES): CC[C@@](O)(C(=O)[O-])c1cc2n(c(=O)c1CO)Cc1cc3ccccc3nc1-2.[Na+] [Sodium camptothecin]
- clinical activity [3]: antitumor activity
- clinical side effects [3]: unpredictable side effects such as myelosuppression and hemorrhagic cystitis

Structure (SMILES): CC[C@@]1(O)C(=O)OCc2c1cc1n(c2=O)Cc2cc3ccccc3nc2-1 [camptothecin, 20(S)-camptothecin]
- affinity of HSA for the carboxylate form relative to the α-hydroxy lactone form [4]: 150 fold

From US6509027B2, “Injectable pharmaceutical composition comprising coated particles of camptothecin” (priority 2001, dated 2003)
